Patent US20170209417A1, “POLYCOMPLEX GEL FOR TREATING DISEASES OF INTESTINAL/DIGESTIVE TRACT” (priority 2014, published 2017)

Experiments:
rabbits = settings: rabbit, in vivo
Protocol: Besides, it is necessary to point out that the claimed polycomplex gel is characterized by the absence of allergenic properties. Considering the fact that nowadays, an obligatory stage of a new medicine study is the evaluation of the allergenicity thereof, the claimed polycomplex gel has passed a verification on the basis of the Arthus-Sakharov test. For this purpose, six rabbits of both sexes weighting from 2.0 to 2.5 kg were injected with thymogen under sterile conditions subcutaneously on one side of the back with the dose of 10 mg/kg in 1.0 ml of sodium chloride isotonic solution and 1 ml of hors serum subcutaneously into the back on the other side. The rabbits of the control group were injected, instead of thymogen, with 1 ml of sodium chloride isotonic solution. The injections of thymogen and of horse serum were repeated for 6 times with a 5-6 days' interval.

[1] = system: allergic agglutinating autoantibodies; settings: in vivo, iv

- Allergenicity (conclusion, standard methods) (rabbits): not allergenic
- Titer growth of allergic agglutinating autoantibodies [1]: not accompanied by any titer growth
Substance: thymogen
